Source: ChEMBL document CHEMBL3046466 (Med Chem Res, 2012)

Biological target: Voltage-dependent L-type calcium channel subunit alpha-1C (Cavia porcellus, UniProt O35505)
Assay: Inhibition of Calcium channel in Cavia porcellus albino (guinea pig) ileocecal SMC assessed as inhibition of 80 mM KCl-induced contraction
Settings: for IC30: guinea pig

Sequence of Voltage-dependent L-type calcium channel subunit alpha-1C (O35505 whole entry): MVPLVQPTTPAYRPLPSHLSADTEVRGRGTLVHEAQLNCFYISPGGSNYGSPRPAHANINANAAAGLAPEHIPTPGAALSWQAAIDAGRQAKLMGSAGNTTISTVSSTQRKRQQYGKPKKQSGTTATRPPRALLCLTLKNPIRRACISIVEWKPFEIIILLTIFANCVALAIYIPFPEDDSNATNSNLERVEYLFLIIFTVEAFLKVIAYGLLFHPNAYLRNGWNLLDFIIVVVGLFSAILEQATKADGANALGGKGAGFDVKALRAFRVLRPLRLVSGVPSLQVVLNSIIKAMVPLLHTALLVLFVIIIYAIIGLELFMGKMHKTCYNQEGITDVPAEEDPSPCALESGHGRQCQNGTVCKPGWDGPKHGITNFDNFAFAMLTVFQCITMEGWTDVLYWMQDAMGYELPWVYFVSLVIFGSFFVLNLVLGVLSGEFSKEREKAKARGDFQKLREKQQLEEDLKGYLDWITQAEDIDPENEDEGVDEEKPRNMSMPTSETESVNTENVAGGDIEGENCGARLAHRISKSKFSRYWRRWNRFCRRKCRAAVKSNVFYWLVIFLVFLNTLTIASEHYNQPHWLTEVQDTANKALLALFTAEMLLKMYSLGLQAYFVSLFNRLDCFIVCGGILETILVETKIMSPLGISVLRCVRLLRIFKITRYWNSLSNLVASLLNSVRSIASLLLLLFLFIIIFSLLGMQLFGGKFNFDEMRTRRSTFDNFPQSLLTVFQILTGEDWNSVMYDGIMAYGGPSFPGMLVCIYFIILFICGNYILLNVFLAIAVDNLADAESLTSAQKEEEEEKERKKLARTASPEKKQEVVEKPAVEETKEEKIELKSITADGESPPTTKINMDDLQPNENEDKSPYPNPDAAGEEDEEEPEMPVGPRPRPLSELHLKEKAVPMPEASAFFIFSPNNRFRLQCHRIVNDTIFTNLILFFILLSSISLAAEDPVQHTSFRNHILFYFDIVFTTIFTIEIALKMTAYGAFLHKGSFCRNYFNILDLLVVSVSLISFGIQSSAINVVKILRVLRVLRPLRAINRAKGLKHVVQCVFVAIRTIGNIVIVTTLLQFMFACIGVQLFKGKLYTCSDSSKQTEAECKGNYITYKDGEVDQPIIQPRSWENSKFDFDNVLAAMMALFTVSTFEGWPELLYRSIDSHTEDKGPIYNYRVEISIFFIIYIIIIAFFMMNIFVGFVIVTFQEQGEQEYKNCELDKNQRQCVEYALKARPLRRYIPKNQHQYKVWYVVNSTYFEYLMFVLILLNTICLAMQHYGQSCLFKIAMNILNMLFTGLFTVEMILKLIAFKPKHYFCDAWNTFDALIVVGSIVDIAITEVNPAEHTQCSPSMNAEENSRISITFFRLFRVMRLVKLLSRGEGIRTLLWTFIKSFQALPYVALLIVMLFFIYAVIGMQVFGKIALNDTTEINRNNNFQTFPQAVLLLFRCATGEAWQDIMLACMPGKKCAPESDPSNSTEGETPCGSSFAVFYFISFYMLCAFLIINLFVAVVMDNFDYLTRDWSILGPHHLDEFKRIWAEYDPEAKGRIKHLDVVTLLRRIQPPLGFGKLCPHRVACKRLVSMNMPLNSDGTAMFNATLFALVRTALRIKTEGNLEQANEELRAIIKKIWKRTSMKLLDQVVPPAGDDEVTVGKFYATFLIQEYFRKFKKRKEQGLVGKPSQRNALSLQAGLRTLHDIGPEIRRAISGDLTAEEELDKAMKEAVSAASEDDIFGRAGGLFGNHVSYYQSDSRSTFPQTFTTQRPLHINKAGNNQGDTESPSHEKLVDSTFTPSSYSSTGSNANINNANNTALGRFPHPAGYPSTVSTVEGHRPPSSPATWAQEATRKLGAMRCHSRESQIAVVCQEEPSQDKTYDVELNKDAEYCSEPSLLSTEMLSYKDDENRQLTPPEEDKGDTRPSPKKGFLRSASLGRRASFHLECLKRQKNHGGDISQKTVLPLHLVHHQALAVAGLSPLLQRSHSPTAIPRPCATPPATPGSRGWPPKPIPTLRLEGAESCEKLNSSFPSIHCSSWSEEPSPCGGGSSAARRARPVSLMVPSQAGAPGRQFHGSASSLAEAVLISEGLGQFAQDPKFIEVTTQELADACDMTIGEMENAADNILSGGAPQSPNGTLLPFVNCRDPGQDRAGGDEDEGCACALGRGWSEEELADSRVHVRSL

| IC50 [µM] | IC30 | SMILES |
| --- | --- | --- |
| 2.03 | 7.18 ×10⁻⁷ M | CCOC(=O)C1=C(C)NC(C)=C(C(=O)OC)C1c1cc(=O)cc(-c2ccccc2)o1 (stereo unspecified) |
| 12.2 | 6.12 ×10⁻⁶ M | CCOC(=O)C1=C(C)NC(C)=C(C(=O)OCC)C1c1ccc(-c2cc(=O)cc(-c3ccccc3)o2)cc1 |
| 17.8 | 3.67 ×10⁻⁶ M | COC(=O)C1=C(C)NC(C)=C(C(=O)OC)C1c1ccc(-c2cc(=O)cc(C)o2)cc1 |
| 86.1 | 4.62 ×10⁻⁶ M | CCOC(=O)C1=C(C)NC(C)=C(C(=O)OC)C1c1ccc(-c2cc(=O)cc(C)o2)cc1 (stereo unspecified) |
| 4.71 | 1.26 ×10⁻⁶ M | COC(=O)C1=C(C)NC(C)=C(C(=O)OC)C1c1ccc(-c2cc(=O)cc(-c3ccccc3)o2)cc1 |
| 1.63 | 5.38 ×10⁻⁷ M | CCOC(=O)C1=C(C)NC(C)=C(C(=O)OC)C1c1cc(=O)cc(C)o1 (stereo unspecified) |
| 94.4 | 4.62 ×10⁻⁶ M | CCOC(=O)C1=C(C)NC(C)=C(C(=O)OC)C1c1ccc(-c2cc(=O)cc(-c3ccccc3)o2)cc1 (stereo unspecified) |
| 2.14 | 7.2 ×10⁻⁷ M | CCOC(=O)C1=C(C)NC(C)=C(C(=O)OCC)C1c1ccc(-c2cc(=O)cc(C)o2)cc1 |
| 3.24 | 1.01 ×10⁻⁶ M | CCOC(=O)C1=C(C)NC(C)=C(C(=O)OCC)C1c1cc(=O)cc(-c2ccccc2)o1 |
| 35.9 | 1.45 ×10⁻⁶ M | CCOC(=O)C1=C(C)NC(C)=C(C(=O)OCC)C1c1cc(=O)cc(C)o1 |

| SMILES | IC50 [µM] | IC30 |
| --- | --- | --- |
| COC(=O)C1=C(C)NC(C)=C(C(=O)OC)C1c1ccccc1[N+](=O)[O-] [NIFEDIPINE] | – | 1.6 ×10⁻⁸ M |
